Results taken from the supplement of paper PMC10307832.

What was measured:
Test in all cases: relative viability (nuclei count vs DMSO), 5 days (fraction); higher = more cells survive
Vismodegib + Pemetrexed = compound: CS(=O)(=O)c1ccc(C(=O)Nc2ccc(Cl)c(-c3ccccn3)c2)c(Cl)c1 [Vismodegib] + Nc1nc2[nH]cc(CCc3ccc(C(=O)N[C@@H](CCC(=O)O)C(=O)O)cc3)c2c(=O)[nH]1 [Pemetrexed] (partner 0.2 µM)
Method in brief: (§1)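 A single step with final 0.05% Triton X-100, 1% formaldehyde and 1 ug/ml Hoechst fixed the cells and stained nuclei 5 days after treatment. Lung cancer cell lines in 1536-well plates had been treated by pin tool the day after seeding with one drug alone or a fixed anchor-drug dose plus five library-drug doses (not always all listed) in √10 steps, and nuclei were counted on 4× images. Relative viability is the ratio of nuclei in treated wells to nuclei in vehicle wells, taken as the median of duplicate plates.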

Ruxolitinib + Pemetrexed = compound: N#CC[C@H](C1CCCC1)n1cc(-c2ncnc3[nH]ccc23)cn1 [Ruxolitinib] + Nc1nc2[nH]cc(CCc3ccc(C(=O)N[C@@H](CCC(=O)O)C(=O)O)cc3)c2c(=O)[nH]1 [Pemetrexed] (partner 0.2 µM)
Method in brief: as §1

Vismodegib + Foretinib = compound: CS(=O)(=O)c1ccc(C(=O)Nc2ccc(Cl)c(-c3ccccn3)c2)c(Cl)c1 [Vismodegib] + COc1cc2c(Oc3ccc(NC(=O)C4(C(=O)Nc5ccc(F)cc5)CC4)cc3F)ccnc2cc1OCCCN1CCOCC1 [Foretinib] (partner 0.25 µM)
Method in brief: as §1

VE-821 + Luminespib = compound: CS(=O)(=O)c1ccc(-c2cnc(N)c(C(=O)Nc3ccccc3)n2)cc1 [VE-821] + CCNC(=O)c1noc(-c2cc(C(C)C)c(O)cc2O)c1-c1ccc(CN2CCOCC2)cc1 [Luminespib] (partner 0.01 µM)
Method in brief: as §1

Cell Line: UMC-11
- relative viability (Vismodegib + Pemetrexed; first compound 0.08 µM): 0.61
- relative viability (Vismodegib + Pemetrexed; first compound 0.253 µM): 0.807
- relative viability (Vismodegib + Pemetrexed; first compound 0.8 µM): 0.768
- relative viability (Vismodegib + Pemetrexed; first compound 2.53 µM): 0.739
- relative viability (Vismodegib + Pemetrexed; first compound 8 µM): 0.868
- relative viability (Ruxolitinib + Pemetrexed; first compound 0.08 µM): 0.795
- relative viability (Ruxolitinib + Pemetrexed; first compound 0.253 µM): 0.777
- relative viability (Ruxolitinib + Pemetrexed; first compound 0.8 µM): 0.757
- relative viability (Ruxolitinib + Pemetrexed; first compound 2.53 µM): 0.924
- relative viability (Ruxolitinib + Pemetrexed; first compound 8 µM): 0.786
- relative viability (Vismodegib + Foretinib; first compound 0.08 µM): 0.996
- relative viability (Vismodegib + Foretinib; first compound 0.253 µM): 0.961
- relative viability (Vismodegib + Foretinib; first compound 0.8 µM): 1.07
- relative viability (Vismodegib + Foretinib; first compound 2.53 µM): 0.923
- relative viability (Vismodegib + Foretinib; first compound 8 µM): 1.04
- relative viability (VE-821 + Luminespib; first compound 0.08 µM): 1.18
- relative viability (VE-821 + Luminespib; first compound 0.253 µM): 0.966
- relative viability (VE-821 + Luminespib; first compound 0.8 µM): 0.966
- relative viability (VE-821 + Luminespib; first compound 2.53 µM): 1.03
- relative viability (VE-821 + Luminespib; first compound 8 µM): 0.493
